From patent US20260091026A1, “METHODS OF TREATING INFLAMMATORY DISEASES” (INTERLINE THERAPEUTICS, INC., priority 2023, published 2026)
Read-outs that look alike come from different tables or passages of the source.

Key:
[1] = target: T1, GST-RIPK2 fusion protein (human RIPK2 amino acids 1-310) (Homo sapiens, UniProt O43353); test: RIPK2 binding competition assay (TR-FRET, Tracer 199); conditions: displacement of Tracer 199 (10 nM), 45 min at 22° C.
T1 construct: made in house; host or cells: baculovirus-infected Sf9 cells
Source text: The ability of selected compounds of Formulas (I) and (II) to inhibit the binding of an Alexa647-labelled ATP-competitive kinase inhibitor to a GST-RIPK2 fusion protein was quantified employing the TR-FRET-based RIPK2 binding competition assay as described in the following paragraphs.
Recombinant fusion protein of N-terminal Glutathione-S-Transferase (GST) and a fragment of human RIPK2 (amino acids 1-310 of accession number 043353), expressed in baculovirus infected Sf9 cells, purified via glutathione affinity chromatography, was used as GST-RIPK2 fusion protein. Tracer 199 from Life Technologies (catalogue no. PR9115B) was used as Alexa647-labelled ATP-competitive kinase inhibitor.
For the assay, 50 nL of a 100-fold concentrated solution of each test compound in DMSO was pipetted into either a black low volume 384-well microtiter plate or a black 1536-well microtiter plate (both Greiner Bio-One, Frickenhausen, Germany), 3 μL solution of Tracer 199 (16.7 nM=>final concentration in 5 μL assay volume is 10 nM) in aqueous assay buffer (25 mM Tris/HCl pH 7.5, 10 mM magnesium chloride (MgCl2), 5 mM β-glycerophosphate, 2.5 mM dithiothreitol (DTT), 0.5 mM ethylene glycol-bis(2-aminoethylether)-N,N,N′,N′-tetraacetic acid (EGTA), 0.5 mM sodium ortho-vanadate, 0.01% (w/v) bovine serum albumin (BSA), 0.005% (w/v) Pluronic F-127 (Sigma)) were added. Then the binding competition was started by the addition of 2 μL of a solution of the GST-RIPK2 fusion protein (2.5 nM=>final conc. in the 5 μL assay volume is 1 nM) and of Anti-GST-Tb (1.25 nM=>final conc. in the 5 μL assay volume is 0.5 nM), a Lumi4®—Tb cryptate-conjugated anti-GST antibody from PerkinElmer (catalogue no 61GSTTAH), in assay buffer.
The resulting mixture was incubated 45 min at 22° C. to allow the formation of a complex between the Tracer 199, the fusion protein and Anti-GST-Tb. Subsequently, the amount of this complex was evaluated by measurement of the resonance energy transfer from the Tb-cryptate to the Tracer 199. Therefore, the fluorescence emissions at 620 nm and 665 nm after excitation at 337 nm were measured in a TR-FRET reader, e.g. a Pherastar FS(BMG Labtechnologies, Offenburg, Germany) or a Viewlux (PerkinElmer). The ratio of the emissions at 665 nm and at 620 nm was taken as the measure of the amount of the complex. The data were normalized (assay reaction without inhibitor=0% activity, all other assay components but no GST-RIPK2 fusion protein=−100% activity).

RIPK2 (KD)/XIAP (BIR2) = target: T2, RIPK2 (KD)/XIAP (BIR2) (Homo sapiens, UniProt O43353); test: RIPK2-XIAP binding competition PPI assay (TR-FRET); conditions: for Emax: read-out: PPI Amax; for IC50: GST-RIPK2 / His-XIAP (BIR2)-avi, 120 min at 23° C.
T2 construct: made in house; host or cells: baculovirus-infected Sf9 cells
Outline: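 After 2 h at 23 °C, complex formation was read as the 665/520 nm emission ratio (337 nm excitation), scaled between uninhibited reaction and 50 nM GSK583. The mix held 1 nM human RIPK2 kinase fragment-GST, 25 nM His-tagged XIAP BIR2 and Tb/XL665 antibodies in pH 7.5 Tris buffer containing vanadate and glycerophosphate.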

[2] = system: THP1-Dual cells, NF-κB pathway (SEAP); test: THP-1 Dual cell SEAP assay (L18-MDP stimulated); format: cell-based; conditions: 10 ng/mL L18-MDP, 20-24 h, SEAP readout, read-out: IFNγ THP1 IC50
Outline: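 IC50 values come from non-linear fits of % inhibition of SEAP, measured as QUANTI-Blue optical density (620-655 nm, 2 h) in media-blanked supernatants. These were taken from THP1-Dual cells treated with compound for 30 min before overnight exposure to 10 ng/mL L18-MDP final at 37 °C.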

[3] = 50 nM of GSK583 = -100% activity

T1 sequence (O43353 1-310): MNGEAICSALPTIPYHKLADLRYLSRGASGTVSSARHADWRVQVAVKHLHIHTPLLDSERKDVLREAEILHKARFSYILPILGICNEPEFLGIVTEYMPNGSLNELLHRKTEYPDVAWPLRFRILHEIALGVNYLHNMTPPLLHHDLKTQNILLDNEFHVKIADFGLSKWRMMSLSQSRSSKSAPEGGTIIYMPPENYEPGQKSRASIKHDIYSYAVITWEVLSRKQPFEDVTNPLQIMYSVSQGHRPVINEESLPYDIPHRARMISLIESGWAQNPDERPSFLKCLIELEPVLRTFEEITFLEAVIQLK
T2 sequence (O43353 1-310): as above

Row | SMILES | IC50 [1] [nM] | Emax (RIPK2 (KD)/XIAP (BIR2); [3]) [%] | IC50 (RIPK2 (KD)/XIAP (BIR2)) [nM] | IC50 ([2]; Homo sapiens) [nM] | PPI Amax (RIPK2 (KD)/XIAP (BIR2); [3]) | IC50 [2] [nM]
1 | COc1cc2ncc(-n3cc(NC(=O)C4(F)CCC5(CC5)CC4)cn3)n2cc1S(=O)(=O)C(C)(C)C [Example 174, N-(1-(6-(tert-butylsulfonyl)-7-methoxyimidazo[1,2-a]pyridin-3-yl)-1H-pyrazol-4-yl)-6-fluorospiro[2.5]octane-6-carboxamide] | 500 to 1000 | ≥ 80 | > 1000 | > 2500 |  | 
2 | COc1cc2ncc(-n3cc(NC(=O)Cc4ccccc4Cl)cn3)n2cc1S(=O)(=O)C(C)(C)C [Example 152, N-(1-(6-(tert-butylsulfonyl)-7-methoxyimidazo[1,2-a]pyridin-3-yl)-1H-pyrazol-4-yl)-2-(2-chlorophenyl)acetamide] | < 200 | ≥ 80 | 100 to 1000 | > 2500 |  | 
3 | COc1cc2ncc(-n3cc(NC(=O)CC4CCCCC4)cn3)n2cc1S(=O)(=O)C(C)(C)C [Example 167, N-(1-(6-(tert-butylsulfonyl)-7-methoxyimidazo[1,2-a]pyridin-3-yl)-1H-pyrazol-4-yl)-2-cyclohexylacetamide] | > 1000 | ≥ 80 | > 1000 | > 2500 |  | 
4 | COc1cc2ncc(-n3cc(C(=O)NCc4ccccc4Cl)cn3)n2cc1S(=O)(=O)C(C)(C)C [Example 2, 1-(6-(tert-butylsulfonyl)-7-methoxyimidazo [1,2-a]pyridin-3-yl)-N-(2-chlorobenzyl)-1H-pyrazole-4-carboxamide] | 200 to 500 | ≥ 80 | 100 to 1000 | > 2500 |  | 
5 | COc1cc2ncc(-n3cc(N4CCC(c5ccccc5)C4=O)cn3)n2cc1S(=O)(=O)C(C)(C)C (racemic) [Example 180, 1-(1-(6-(tert-butylsulfonyl)-7-methoxyimidazo[1,2-a]pyridin-3-yl)-1H-pyrazol-4-yl)-3-phenylpyrrolidin-2-one] | > 1000 | ≥ 80 | > 1000 | > 2500 |  | 
6 | COc1cc2ncc(-c3cc(C(=O)N(C)C)n(C)n3)n2cc1S(=O)(=O)C(C)(C)C [Example 5, 3-(6-(tert-butylsulfonyl)-7-methoxyimidazo[1,2-a]pyridin-3-yl)-N,N,1-trimethyl-1H-pyrazole-5-carboxamide] | < 200 | ≤ 30 | > 1000 | > 2500 |  | 
7 | COc1cc2ncc(-n3cc(NC(=O)[C@@H](C)c4ccccc4)cn3)n2cc1S(=O)(=O)C(C)(C)C [Example 162, (S)-N-(1-(6-(tert-butylsulfonyl)-7-methoxyimidazo[1,2-a]pyridin-3-yl)-1H-pyrazol-4-yl)-2-phenylpropanamide] | 500 to 1000 | ≥ 80 | > 1000 | > 2500 |  | 
8 | COc1cc2ncc(-n3cc(NC(=O)OC(C)(C)C)cn3)n2cc1SC(C)(C)C [Example 153, tert-butyl (1-(6-(tert-butylthio)-7-methoxyimidazo[1,2-a]pyridin-3-yl)-1H-pyrazol-4-yl)carbamate] | 200 to 500 | ≥ 80 | > 1000 | > 2500 |  | 
9 | COc1cc2ncc(-c3cc(C(=O)NCc4ccccc4Cl)n(C)n3)n2cc1S(=O)(=O)C(C)(C)C [Example 4, 3-(6-(tert-butylsulfonyl)-7-methoxyimidazo[1,2-a]pyridin-3-yl)-N-(2-chlorobenzyl)-1-methyl-1H-pyrazole-5-carboxamide] | < 200 | ≥ 80 | 10 to 100 | 500 to 2500 |  | 
10 | COc1cc2ncc(-n3cc(NC(=O)N4CCCC4c4ccccc4)cn3)n2cc1S(=O)(=O)C(C)(C)C (racemic) [Example 177, N-(1-(6-(tert-butylsulfonyl)-7-methoxyimidazo[1,2-a]pyridin-3-yl)-1H-pyrazol-4-yl)-2-phenylpyrrolidine-1-carboxamide] | > 1000 | ≥ 80 | > 1000 | > 2500 |  | 
11 | COc1cc2ncc(-n3cc(NC(=O)[C@H]4C[C@H]4c4ccccc4)cn3)n2cc1S(=O)(=O)C(C)(C)C [Example 171, (1S,2R)-N-(1-(6-(tert-butylsulfonyl)-7-methoxyimidazo[1,2-a]pyridin-3-yl)-1H-pyrazol-4-yl)-2-phenylcyclopropane-1-carboxamide] | < 200 | ≥ 80 | 100 to 1000 | 500 to 2500 |  | 
12 | COc1cc2ncc(-n3cc(NC(=O)N4CCCC4c4ccccc4)cn3)n2cc1S(=O)(=O)C(C)(C)C (single isomer, unassigned) [Example 179, (S)- or (R)-N-(1-(6-(tert-butylsulfonyl)-7-methoxyimidazo[1,2-a]pyridin-3-yl)-1H-pyrazol-4-yl)-2-phenylpyrrolidine-1-carboxamide] | 500 to 1000 |  | > 1000 |  | A (Amax of ≥80%) | > 2500
13 | COc1cc2ncc(-c3cc(NC(=O)C4(F)CCCCC4)n(CCO)n3)n2cc1S(=O)(=O)C(C)(C)C [Example 193, N-(3-(6-(tert-butylsulfonyl)-7-methoxyimidazo[1,2-a]pyridin-3-yl)-1-(2-hydroxyethyl)-1H-pyrazol-5-yl)-1-fluorocyclohexane-1-carboxamide] | < 200 | ≥ 80 | 100 to 1000 | > 2500 |  | 
14 | COc1cc2ncc(-n3cc(N(C)C(=O)Cc4ccccc4Cl)cn3)n2cc1S(=O)(=O)C(C)(C)C [Example 173, N-(1-(6-(tert-butylsulfonyl)-7-methoxyimidazo[1,2-a]pyridin-3-yl)-1H-pyrazol-4-yl)-2-(2-chlorophenyl)-N-methylacetamide] | > 1000 | ≥ 80 | > 1000 | > 2500 |  | 
15 | CN1CCC(Nc2cncc(-c3cc(NC(=O)Cc4ccccc4Cl)n(C)n3)c2)CC1 [Example 184, 2-(2-chlorophenyl)-N-(1-methyl-3-(5-((1-methylpiperidin-4-yl)amino)pyridin-3-yl)-1H-pyrazol-5-yl) acetamide] | < 200 | ≥ 80 | 100 to 1000 | > 2500 |  | 
16 | COc1cc2ncc(-c3cc(NC(=O)Cc4ccccc4Cl)n(C)n3)n2cc1S(=O)(=O)C(C)(C)C [Example 185, N-(3-(6-(tert-butylsulfonyl)-7-methoxyimidazo[1,2-a]pyridin-3-yl)-1-methyl-1H-pyrazol-5-yl)-2-(2-chlorophenyl)acetamide] | < 200 | ≥ 80 | 10 to 100 | 500 to 2500 |  | 
17 | COc1cc2ncc(-n3cc(NC(=O)Cc4cc(F)ccc4Cl)cn3)n2cc1S(=O)(=O)C(C)(C)C [Example 157, N-(1-(6-(tert-butylsulfonyl)-7-methoxyimidazo[1,2-a]pyridin-3-yl)-1H-pyrazol-4-yl)-2-(2-chloro-5-fluorophenyl)acetamide] | 500 to 1000 | ≥ 80 | > 1000 | > 2500 |  | 
18 | COc1cc2ncc(-n3cc(NC(=O)C4(F)CCCCC4)cn3)n2cc1S(=O)(=O)C(C)(C)C [Example 169, N-(1-(6-(tert-butylsulfonyl)-7-methoxyimidazo[1,2-a]pyridin-3-yl)-1H-pyrazol-4-yl)-1-fluorocyclohexane-1-carboxamide] | 200 to 500 | ≥ 80 | > 1000 | > 2500 |  | 
